These results are taken from ChEMBL document CHEMBL1143993, “Synthesis and structure-activity relationships of a series of substituted 2-(1H-furo[2,3-g]indazol-1-yl)ethylamine derivatives as 5-HT2C receptor agonists” (Bioorg Med Chem, 2008).

pEC50, pKi: −log10 of the molar value.

For assay [1], the target named is T1, 5-hydroxytryptamine receptor 2A (Homo sapiens, UniProt P28223). The assay can be described thus: Displacement of [3H]5-HT from human 5HT2A receptor expressed in CHO cells. The assay is classed as cell-based. (In general: Loss of bound radioactivity is the signal in a displacement assay; it reports binding, not function.)
T1 sequence (P28223 whole entry): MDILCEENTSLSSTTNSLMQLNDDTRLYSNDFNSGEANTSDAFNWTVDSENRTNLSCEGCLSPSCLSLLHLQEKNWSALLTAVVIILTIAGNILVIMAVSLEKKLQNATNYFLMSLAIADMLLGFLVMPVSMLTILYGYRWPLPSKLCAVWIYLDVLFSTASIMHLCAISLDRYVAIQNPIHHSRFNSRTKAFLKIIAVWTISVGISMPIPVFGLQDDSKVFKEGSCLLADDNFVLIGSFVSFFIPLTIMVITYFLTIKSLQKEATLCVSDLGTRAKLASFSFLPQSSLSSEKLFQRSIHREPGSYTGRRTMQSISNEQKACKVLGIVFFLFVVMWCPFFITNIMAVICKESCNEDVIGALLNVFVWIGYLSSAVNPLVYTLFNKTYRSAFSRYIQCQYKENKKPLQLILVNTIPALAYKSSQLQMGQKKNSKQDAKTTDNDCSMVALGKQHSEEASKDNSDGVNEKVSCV
The target in assay [2] is T2, 5-hydroxytryptamine receptor 2C (Homo sapiens, UniProt P28335).
T2 sequence (P28335 whole entry): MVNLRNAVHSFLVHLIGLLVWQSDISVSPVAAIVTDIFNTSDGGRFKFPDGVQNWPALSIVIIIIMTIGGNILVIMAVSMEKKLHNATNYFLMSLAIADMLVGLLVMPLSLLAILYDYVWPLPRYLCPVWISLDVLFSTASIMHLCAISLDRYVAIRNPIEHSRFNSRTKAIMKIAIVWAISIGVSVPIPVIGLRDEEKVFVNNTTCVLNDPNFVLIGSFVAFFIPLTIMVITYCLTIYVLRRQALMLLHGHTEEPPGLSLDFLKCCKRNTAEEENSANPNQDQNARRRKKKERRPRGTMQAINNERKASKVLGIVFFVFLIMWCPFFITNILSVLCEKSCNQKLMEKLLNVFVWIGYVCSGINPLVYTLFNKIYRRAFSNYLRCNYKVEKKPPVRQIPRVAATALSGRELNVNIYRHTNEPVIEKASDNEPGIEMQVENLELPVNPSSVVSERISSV
In words: Displacement of [3H]5-HT from human 5HT2C receptor expressed in CHO cells. The assay is classed as cell-based.

Assay [3] concerns the target Serotonin 2 receptors; 5-HT2a & 5-HT2c (Homo sapiens) (UniProt P28223+P28335). The assay can be described thus: Selectivity for human 5HT2A to human 5HT2C.
In assay [4] the target is T1, 5-hydroxytryptamine receptor 2A. The assay can be described thus: Intrinsic activity at human cloned 5HT2A receptor expressed in CHO cells assessed as maximal stimulation of 10 uM 5HT-induced myo-[3H]inositol hydrolysis. The assay is classed as functional, cell-based.
The subject of assay [5] is Rattus norvegicus. In words: Induction of penile erection in sc dosed rat. The assay is classed as functional. As to conditions: read-out: MED.
For assay [6], the target named is T3, 5-hydroxytryptamine receptor 2B (Homo sapiens, UniProt P41595).
T3 sequence (P41595 whole entry): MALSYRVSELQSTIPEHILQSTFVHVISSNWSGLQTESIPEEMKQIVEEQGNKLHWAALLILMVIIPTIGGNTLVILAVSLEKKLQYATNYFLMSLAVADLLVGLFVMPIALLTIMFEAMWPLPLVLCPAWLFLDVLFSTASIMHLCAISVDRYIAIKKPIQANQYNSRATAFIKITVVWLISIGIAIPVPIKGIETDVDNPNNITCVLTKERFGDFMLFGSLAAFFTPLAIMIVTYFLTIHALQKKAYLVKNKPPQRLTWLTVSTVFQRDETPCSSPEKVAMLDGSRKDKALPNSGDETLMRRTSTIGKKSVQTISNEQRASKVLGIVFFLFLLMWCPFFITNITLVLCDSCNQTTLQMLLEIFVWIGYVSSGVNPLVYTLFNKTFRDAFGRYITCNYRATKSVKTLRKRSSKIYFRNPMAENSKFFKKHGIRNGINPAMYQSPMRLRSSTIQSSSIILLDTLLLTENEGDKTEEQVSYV
Description: Agonist activity at human cloned 5HT2B receptor expressed in HEK293-EBNA cells assessed as myo-[3H]inositol hydrolysis
The target in assay [7] is T3, 5-hydroxytryptamine receptor 2B. In words: Intrinsic activity at human cloned 5HT2B receptor expressed in HEK293-EBNA cells assessed as maximal stimulation of 10 uM 5HT-induced myo-[3H]inositol hydrolysis. The assay is classed as functional, cell-based.
Assay [8] addresses T1, 5-hydroxytryptamine receptor 2A. In words: Agonist activity at human cloned 5HT2A receptor expressed in CHO cells assessed as myo-[3H]inositol hydrolysis. The format is functional, cell-based.
The target of assay [9] is T2, 5-hydroxytryptamine receptor 2C. In words: Agonist activity at human cloned 5HT2C receptor expressed in CHO cells assessed as myo-[3H]inositol hydrolysis. The format is functional, cell-based.
For a further assay, the species on record is Homo sapiens. The assay can be described thus: Selectivity ratio of EC50 for human cloned 5HT2B receptor over EC50 for human cloned 5HT2C receptor.
Assay [10] addresses T4, 5-hydroxytryptamine receptor 2C (Homo sapiens) (UniProt P28335).
T4 sequence (whole entry): T2 sequence (P28335 whole entry)
The assay can be described thus: Intrinsic activity at human cloned 5HT2C receptor expressed in CHO cells assessed as maximal stimulation of 10 uM 5HT-induced myo-[3H]inositol hydrolysis. The assay is classed as functional, cell-based.

For assay [11], the system named is Rattus norvegicus. The assay can be described thus: Induction of penile erection in po dosed rat. The settings on record: read-out: MED. The assay is classed as functional.

Chain of Serotonin 2 receptors; 5-HT2a & 5-HT2c (Homo sapiens) (P28223 whole entry, looked up, one chain of several): as the sequence (P28223 whole entry) above

Usually pKi stands for the negative decadic logarithm of the Ki, by convention in mol/L. Regarding `C[C@H](N)Cn1ncc2ccc3ocnc3c21`, the results for the negative-log Ki (pKi) in [1] and in assay [2] were 7.33 and 7.23, respectively. In addition, the Ratio Ki in [3] worked out at 1.
As a reminder, the Emax is the greatest response seen or fitted, relative to the assay's reference. By pEC50 is commonly meant the EC50 on a negative log10 scale, so that one unit is a factor of ten. In the case of `C[C@H](N)Cn1ccc2cc(F)c(Cl)cc21`, the values for the negative logarithm of the Ki (pKi) in [1] and in assay [2] were 7.41 and 7.59, respectively. The values for the Emax in assay [4], in [7] and in assay [10] were 91%, 130% and 88%, respectively. Besides, in the assay on Rattus norvegicus [5], the minimal effective dose turned out to be 0.3 mg/kg. Besides, the results for the pEC50 in assay [6], in assay [8] and in [9] were 8.62, 6.40 and 7.28, respectively. Besides, the Ratio Ki in assay [3] amounted to 2. The Ratio EC50 in the assay listed under Homo sapiens came to 0.05.
With `C[C@H](N)Cn1ncc2cc(F)ccc21`, the pKi in assay [1] was 7.05; in [2], 7.37. For the same molecule, the Ratio Ki in [3] came out at 2.
Taken in the same sequence, the figures for `CC(C)c1cc2c(ccc3cnn(C[C@H](C)N)c32)o1` were 7.06, 7.70 and 4.
Take `Cc1cc2c(ccc3cnn(C[C@H](C)N)c32)o1`: the pKi in assay [1] is 9.11; in assay [2], 9.70. Further, in assay [3], the Ratio Ki came to 4.
Taken in the same sequence, the figures for `CCc1nn(C[C@H](C)N)c2c1ccc1occc12` were 7.96, 8.60 and 4.
As for `COc1ccc2cnn(C[C@H](C)N)c2c1Cl`, the results for the negative-log Ki (pKi) in [1] and in assay [2] were 5.92 and 6.85, respectively. The Ratio Ki in assay [3] stood at 9.
`CCc1cc2c(ccc3c(CC)nn(C[C@H](C)N)c32)o1`: the pKi in assay [1] was 7.29; in assay [2], 8.57. In [3], the Ratio Ki was found to be 19.
The like results for `C[C@H](N)Cn1ncc2ccc(F)cc21` were, in that order, 7.09, 7.49 and 3.
The like results for `C[C@H](N)Cn1ncc2ccc3occc3c21` were, in that order, 9.11, 9.70 and 4.
Taken in the same sequence, the figures for `CCCc1nn(C[C@H](C)N)c2c1ccc1occc12` were 7.19, 7.60 and 3.
In the case of `CCc1cc2c(ccc3c(C)nn(C[C@H](C)N)c32)o1`, the pKi in [1] was 7.34; in [2] it was 8.30. Moreover, the Ratio Ki in assay [3] came to 9.
In the case of `CCc1cc2c(ccc3c(OC)nn(C[C@H](C)N)c32)o1`, the negative-log Ki (pKi) in [1] was 7.42; in assay [2], 7.92. Further, in assay [3], the Ratio Ki was 3.
Turning to `Cc1nn(C[C@H](C)N)c2c1ccc1occc12`, the values for the pKi in assay [1] and in assay [2] were 7.77 and 7.89, respectively. Moreover, the Ratio Ki in assay [3] worked out at 1.
For the molecule `COc1nn(C[C@H](C)N)c2c1ccc1occc12`, the minimal effective dose with Rattus norvegicus [5] worked out at 0.1 mg/kg. For the same molecule, the pKi in assay [2] is 9.29. For the same molecule, the Ratio Ki in [3] worked out at 17.
Take `C[C@H](N)Cn1ncc2ccc(Cl)c(Cl)c21`: the pKi was 8.04 in assay [1] and 8.40 in assay [2]. Further, the Ratio Ki in assay [3] was determined as 2.
Taken in the same sequence, the figures for `C[C@H](N)Cn1ncc2ccc3sccc3c21` were 8.17, 8.85 and 5.
Consider `C[C@H](N)Cn1ncc2cc(Cl)c(Cl)cc21`, for which the pKi in assay [1] was 7.96; in [2] it was 8.12. The Ratio Ki in assay [3] was found to be 1.
Taken in the same sequence, the figures for `COc1ccc2cnn(C[C@H](C)N)c2c1` were 7.43, 7.80 and 2.
In the case of `CCc1cc2c(ccc3cnn(C[C@H](C)N)c32)o1`, the negative-log Ki (pKi) was 7.89 in assay [1] and 9.05 in assay [2]. The results for the minimal effective dose with Rattus norvegicus [11] and in the assay with Rattus norvegicus [5] were 0.3 mg/kg and 0.03 mg/kg, respectively. The values for the Emax in assay [4], in assay [7] and in [10] were 97%, 110% and 76%, respectively. The figures for the pEC50 in assay [6], in [8] and in assay [9] were 8.49, 7.03 and 9.00, respectively. Further, the Ratio Ki in [3] worked out at 15. Moreover, the Ratio EC50 in the assay listed under Homo sapiens worked out at 3.2.
